According to patent publication US20190209451A1, “SOLUBILIZING AGENTS FOR UV FILTERS IN COSMETIC FORMULATIONS” (BASF SE, priority 2016, published 2019):

assay: Determination of the solubility of organic UV filters in levulynates used as solvents; assay type: physicochemical; conditions: UV filter dissolved in the named levulynate as solvent; stirred seven days at 25° C.; UV/Vis-spectrometry
Experimental: Afterwards 0.02 g (1%) of the respective substance are weighed and added to the solvent. The vial is placed into a thermostated waterbath, where the suspension/solution is stirred during seven days at 25° C. If the amount of substance put into the solvent is fully soluble, additional substance is added until precipitation can be observed. After seven days, the sample is centrifuged for 30 minutes at 13000 rpm. The supernatant is transferred into a small beaker. In case the sample is still turbid, it is filtered through a 0.2 μm non-steril Membrex 25 PET filter. Clear solutions must not be filtered. When a clear solution is obtained, the concentration of the substance is determined with UV/Vis-spectrometry. For this purpose the sample may be diluted with a suitable solvent or, in case of lower concentrations, may be measured as is. If the test solvent is water, further dilution is done with water. If the test solvent is volatile, the same solvent is taken for dilution. If the test solvent is a cosmetic emollient, dioxane is used for further dilution. In order to evaluate the concentration from the UV-spectroscopic results, the extinction coefficient is needed, which is determined independently with a solvent of similar polarity like that one used for dilution of the saturated solutions. The solubility can be calculated using the equation of the Lambert-Beer-Law: [formula] • c=concentration (mol/l) • E=extinction measured at λ max. • f=dilution factor • ε=extinction coefficient at λmax [I/(mol/cm)] • d=optical pathlength [cm] Due to spectra overlapping the solubility of some crystalline UV filters in liquid UV filters cannot be determined exactly by UV spectroscopy. In this case solubilities are determined via HPLC with reversed phase C-18 columns and UV-detectors.

| SMILES | Solubility of Bis-Ethylhexyloxyphenol Methoxyphenyl Triazine [w/%] | Solubility of Diethylamino Hydroxybenzoyl Hexyl Benzoate [w/%] | Solubility of Ethylhexyl Triazone [w/%] |
| --- | --- | --- | --- |
| CCCCC(CC)COC(=O)CCC(C)=O (centres unmarked) [2-Ethylhexyl-levulynate] | 6.5 | 33.4 | – |
| CCCCCCCCOC(=O)CCC(C)=O [C8-levulynate, levulinic acid octyl ester] | 10.4 | 42.6 | 25.1 |
| CCCCCCCCCCOC(=O)CCC(C)=O [C10-levulynate, levulinic acid decyl ester] | 9.1 | 31.0 | 21.0 |
| CCCCCCCCCCCCOC(=O)CCC(C)=O [C12-Levulynate, levulinic acid dodecyl ester] | 3.0 | 29.1 | 11.7 |
